Experimental data reported in patent US20140227408A1, “MEAT TREATMENT AND PRESERVATION METHOD” (RED MEAT AS, priority 2011, published 2014).

What was measured:
Parameters in all cases: species or system cattle
[1] = Colour (b*, a*) of minced beef mixed with test brines, stored in low-oxygen MAP (Examples 1-2); settings: for b*: low oxygen (MAP), day 6 of storage, amount 1 = 0.1 mol per kg meat
Procedure: (§1) Beef fat and pork fat (high degree of unsaturation) were used with raw semimembranosus muscle from young and old cattle. Beef from the hind leg was removed, weighed, chopped, mixed with fat (14% by weight), and the various test compounds were added to the minced meat. The mixtures were packed into boxes and sealed with plastic sheeting. Packing was done with MAP to yield a low-oxygen atmosphere (60% CO2 and 40% N2) and also under a high-oxygen atmosphere (75% oxygen and 25% CO2). The samples were stored in darkness at 4° C. from 0 to 8 days for the high-oxygen atmosphere and 0 to 13 days for the MAP samples. A Cheers Packaging Machine (Promens) was used for packaging of samples. Triplicate reference samples with only 40 ml of distilled water mixed and packaged as described above were evaluated at days 6 and 8 for the high-oxygen environment and at days 6, 8, 10 and 13 for the MAP environment.
(§2) Samples of test compounds were prepared with succinate, glutamate, malate, pyruvate and citrate in different combinations, either as single chemicals or as mixtures. The acid and conjugate base of each active component was added in the appropriate ratio to provide the solutions (brines) with a pH of 5.8. As will be clear from the foregoing description, the “succinate” used in this experiment was a combination of succinic acid and sodium succinate. The “glutamate”, “malate”, etc. were used equivalently.
(§3) Meat and fat was cut into small pieces and minced (3 mm holes). 40 g of brine was added to 360 g mince and packed in the plastic packing.
(§4) Several variables were included in the design of the experiment, using a 2^3 factorial design. […] Malate and glutamate were considered together in the design and analysis, but their ratio was varied in the experiments from pure malate to pure glutamate.
(§5) Colour changes in the samples were measured with a FOSS NIRSystems™ 6500 analyser and a Konica Minolta Chroma meter CR 410 (Konica Minolta Sensing Inc., Osaka, Japan). Colour was measured using the parameters L*, a* and b* at 0, 1, 3, 6 and 8 days for samples stored in 75% oxygen. Colour changes of the samples packaged in MAP were measured at 0, 1, 3, 6, 8, 10 and 13 days of storage time.
Results from the experiments carried out on the various meat and fat samples are shown below in Tables 1 to 8. Values given for the amount of active agents in Tables 1 to 8 correspond to the molar proportion of the given agent within the brine/meat mixture, where a value of 1 corresponds to 0.1 moles active agent per kg of meat, a value of 0.5 corresponds to 0.05 mol/kg, etc. […] The b* values, which are considered to be most representative of the colour changes in the meat being tested, are shown. All results correspond to measurements made on day 6 of storage
The data from the experiment described in Example 1 were analyzed using an ANOVA model with all main effect and second and higher order effects according to the method described in Langsrud, Ø. (“50-50 Multivariate Analysis of Variance for Collinear Responses” The Statistician (2002) 51, pp. 305-317). […] The mixture design was fractional.

[2] = Colour (b*) of minced beef mixed with test brines, stored in high-oxygen atmosphere (Example 1); settings: day 6 of storage, amount 1 = 0.1 mol per kg meat
Procedure: as §1, §2, §3, §4, §5
Results from the experiments carried out on the various meat and fat samples are shown below in Tables 1 to 8. Values given for the amount of active agents in Tables 1 to 8 correspond to the molar proportion of the given agent within the brine/meat mixture, where a value of 1 corresponds to 0.1 moles active agent per kg of meat, a value of 0.5 corresponds to 0.05 mol/kg, etc. […]
The data from the experiment described in Example 1 were analyzed using an ANOVA model with all main effect and second and higher order effects according to the method described in Langsrud, Ø. […]

[3] = Colour L*, a*, b* of treated ground beef, low oxygen packaging (Example 5); settings: low oxygen packaging
From the text: Beef M. semimembranosus (M.S.) and beef fat tissue were collected four days post mortem (Fatland A/S, Oslo, Norway). The packaging day is defined as day zero, however, the tissues were 4 days post mortem on packing day. A piece of meat from proximal end was cut from each muscle in order to measure oxygen consumption, pH and surface colour. Fat tissue from pigs fed rapeseed and vitamin E to enhance the content of polyunsaturated fatty acids were from HKScan (Ruokatalo, Finland). The fat tissue was transported vacuum-packaged and frozen. Samples of minced fat tissue were removed for fatty acid analysis.
The beef muscles were cut into pieces of approximately 10×5 cm and mixed to 14% w/w fat by using the fat tissues. Beef fat and pork fat tissues were ground twice with either raw beef from four young (16-19 months) or four old (46-81 months) cattle. […] The ground meat was blended manually with solutions (all at pH 5.8) with various TCA and glycolytic ingredients (see below).
To maintain pH at 5.8 the solutions were prepared by mixing the acid form and the corresponding sodium salt of these chemicals.
[…] The solution was quickly and properly stirred into the minced meat and the blended system was subsequently packaged. […] Two reference samples with 40 ml of distilled water added to 360 gram of ground beef were also prepared each of the four production day, i.e. altogether 8 references were prepared. The samples were packaged in either low or high oxygen atmosphere.
The ground beef was packaged in black amorphous polyethylene terephthalate (APET) trays that were sealed with ethylene vinyl alcohol (EVOH) top films. The trays and films (Wipak Multipet and Wipak Biaxer, both Wipak, Nastola, Finland) had oxygen transmission rates of 7 and 5 cm^3/m^2/24 h at 23° C. at 50% relative humidity. Packaging was carried out within 1 hour after grinding. The samples were stored in darkness at 4° C. for 8 days in a high-oxygen atmosphere (75% oxygen and 25% CO2) and for 13 days in a low-oxygen atmosphere (60% CO2 and 40% N2). These food grade gas mixtures were supplied by AGA (Oslo, Norway).
The colour of the ground meat samples was measured with a Konica Minolta Chroma Meter CR 410 (Konica Minolta Sensing Inc., Osaka, Japan) using the glass light projection tube CR A 33e with wide illumination area (61 mm) and illuminant D65. The instrument was calibrated each day by measuring a white ceramic plate (L*=97.9; a*=0.05; b*=2). All colour measurements were made with 3 replicates (CIE, 1976, “Recommendations on uniform colour spaces-colour difference equations” (Vol. Supplement No. 2 to CIE). Paris, France: Commission Internationale de l'Eclairage).
The colour of the samples packaged in high O2 was measured after 0, 1, 3, 6 and 8, days of storage from packaging day, while low O2 samples were measured at 0 to 13 days of storage using Minolta and reflectance measurements.
The experimental design is visualized in FIG. 5. A 2^2 design (animal age and type of fat tissue) was split over 4 experimental days (FIG. 5, and Tables 10 and 11). To each corner of this 2^2 design was added a 3 component (succinate, pyruvate and glutamate-malate additions; 0, 50 and 100%) simplex lattice mixture design with 2 additional centre experiments as shown in FIG. 5.

[4] = old beef muscle mixed with beef fat
[5] = old beef muscle mixed with pork fat
[6] = young beef muscle mixed with pork fat

Row | Structure (SMILES) | a* ([1]; low-oxygen environment, zero citrate, after 6 days storage, relative amounts of succinate, pyruvate, glutamate + malate) | b* [1, 4] | b* [1, 5] | b* ([1]; young beef muscle mixed with beef fat, 4° C.) | b* [1, 6] | b* [2, 4] | b* [2, 5] | b* ([2]; young beef muscle mixed with beef fat) | b* [2, 6] | effect on yellowness (b*), in words [3]
1 | O=C(O)CCC(=O)O [succinate 1.00, succinate] | 9.81 | 1.48 | 0.98 | 1.07 | 1.34 | 3.45 | 3.77 | 4.01 | 4.70 | –
2 | O=C(O)CC(O)C(=O)O (racemic) [malate] | – | – | – | – | – | – | – | – | – | nominally higher b* values
